# Tested on: HT29 human colorectal adenocarcinoma cell line
# Test: cell proliferation assay (Cell Titer-Glo luminescent cell viability assay)
# Assay type: cell-based
# Conditions: HT-29, 72 h, read-out: pIC50 (converted)
# Experimental: The cell culture and proliferation assay may be carried out as follows: the HT29 human colorectal adenocarcinoma cell line (ATCC, USA) was maintained in Dulbecco's Modified Eagle's Medium (Invitrogen, USA) supplemented with 10% fetal bovine serum (JRH, USA). The cell proliferation assay was carried out with the Cell Titer-Glo luminescent cell viability assay (Promega, USA) according to the manufacture's instruction after the 72 hr treatment of the cells in the presence of the compounds. The cell viability was shown as a percentage of DMSO treated cells.
row,SMILES,IC50 [nM]
1,"COc1cc(C(=O)O)ccc1Nc1ncc2c(n1)N(C1CCCC1)CC(C)(C)C(=O)N2C [Compound 85, 4-(9-Cyclopentyl-5,7,7-trimethyl-6-oxo-6,7,8,9-tetrahydro-5H-pyrimido[4,5-b][1,4]diazepin-2-ylamino)-3-methoxybenzoic Acid]",3.16 to 10
2,"COc1cc(C(=O)NC2CCN(C)CC2)ccc1Nc1ncc2c(n1)N(C1CCCC1)CC(C)(C)C(=O)N2C [Compound 86, 4-(9-cyclopentyl-5,7,7-trimethyl-6-oxo-6,7,8,9-tetrahydro-5H-pyrimido[4,5-b][1,4]diazepin-2-ylamino)-3-methoxy-N-(1-methylpiperidin-4-yl)benzamide]",3.16 to 10

# Same assay, conditions: HT-29, cell proliferative assay, HT29 cells, 72 hr treatment, values given as ranges, read-out: pIC50 (converted)
row,SMILES,IC50 [nM]
1,"COc1cc(C(=O)NC[C@H]2CCCNC2)ccc1Nc1ncc2c(n1)N(C1CCCC1)CCC(=O)N2C [Compound 64, (S)-4-(9-cyclopentyl-5-methyl-6-oxo-6,7,8,9-tetrahydro-5H-pyrimido[4,5-b][1,4]diazepin-2-ylamino)-3-methoxy-N-(piperidin-3-ylmethyl)benzamide]",> 10
2,"COc1cc(C(=O)NCc2ccccn2)ccc1Nc1ncc2c(n1)N(C1CCCC1)CCC(=O)N2C [Compound 69, 4-(9-cyclopentyl-5-methyl-6-oxo-6,7,8,9-tetrahydro-5H-pyrimido[4,5-b][1,4]diazepin-2-ylamino)-3-methoxy-N-(pyridin-2-ylmethyl)benzamide]",3.16 to 10
3,"COc1cc(C(=O)NCc2cccnc2)ccc1Nc1ncc2c(n1)N(C1CCCC1)CCC(=O)N2C [Compound 70, 4-(9-cyclopentyl-5-methyl-6-oxo-6,7,8,9-tetrahydro-5H-pyrimido[4,5-b][1,4]diazepin-2-ylamino)-3-methoxy-N-(pyridin-3-ylmethyl)benzamide]",3.16 to 10
4,"COc1cc(C(=O)NCc2ccncc2)ccc1Nc1ncc2c(n1)N(C1CCCC1)CCC(=O)N2C [Compound 71, 4-(9-cyclopentyl-5-methyl-6-oxo-6,7,8,9-tetrahydro-5H-pyrimido[4,5-b][1,4]diazepin-2-ylamino)-3-methoxy-N-(pyridin-4-ylmethyl)benzamide]",3.16 to 10
5,COc1cc(C(=O)NC2CCN(C(=O)C3CC3)CC2)ccc1Nc1ncc2c(n1)N(C1CCCC1)CCC(=O)N2C [Compound 73],> 10
6,"COc1cc(C(=O)NCC2CCN(C(=O)C3CC3)CC2)ccc1Nc1ncc2c(n1)N(C1CCCC1)CCC(=O)N2C [Compound 76, 4-(9-cyclopentyl-5-methyl-6-oxo-6,7,8,9-tetrahydro-5H-pyrimido[4,5-b][1,4]diazepin-2-ylamino)-N-((1-(cyclopropanecarbonyl)piperidin-4-yl)methyl)-3-methoxybenzamide]",> 10
7,"COc1cc(C(=O)NC2CCN(C(C)C)CC2)ccc1Nc1ncc2c(n1)N(C1CCCC1)CCC(=O)N2C [Compound 77, 4-(9-cyclopentyl-5-methyl-6-oxo-6,7,8,9-tetrahydro-5H-pyrimido[4,5-b][1,4]diazepin-2-ylamino)-N-(1-isopropylpiperidin-4-yl)-3-methoxybenzamide]",> 10
8,"CCN(CC)C1CCC(NC(=O)c2ccc(Nc3ncc4c(n3)N(C3CCCC3)CCC(=O)N4C)c(OC)c2)CC1 (stereo not drawn) [Compound 79, 4-(9-cyclopentyl-5-methyl-6-oxo-6,7,8,9-tetrahydro-5H-pyrimido[4,5-b][1,4]diazepin-2-ylamino)-N-(4-(diethylamino)cyclohexyl) 3-methoxybenzamide]",> 10
9,"COc1cc(C(=O)NC2CC(C)(C)N(C)C(C)(C)C2)ccc1Nc1ncc2c(n1)N(C1CCCC1)CCC(=O)N2C [Compound 80, 4-(9-cyclopentyl-5-methyl-6-oxo-6,7,8,9-tetrahydro-5H-pyrimido[4,5-b][1,4]diazepin-2-ylamino)-3-methoxy-N-(1,2,2,6,6-pentamethylpiperidin-4-yl)benzamide]",3.16 to 10
10,"COc1cc(C(=O)NCCCN(C)C)ccc1Nc1ncc2c(n1)N(C1CCCC1)CC(C)(C)C(=O)N2C [Compound 89, 4-(9-cyclopentyl-5,7,7-trimethyl-6-oxo-6,7,8,9-tetrahydro-5H-pyrimido[4,5-b][1,4]diazepin-2-ylamino)-N-(3-(dimethylamino)propyl)-3-methoxybenzamide]",3.16 to 10
11,"COc1cc(C(=O)NCCN2CCCC2)ccc1Nc1ncc2c(n1)N(C1CCCC1)CC(C)(C)C(=O)N2C [Compound 93, 4-(9-cyclopentyl-5,7,7-trimethyl-6-oxo-6,7,8,9-tetrahydro-5H-pyrimido[4,5-b][1,4]diazepin-2-ylamino)-3-methoxy-N-(2-(pyrrolidin-1-yl)ethyl)benzamide]",3.16 to 10

# The remaining lines, values ahead:
row,IC50 [nM],SMILES
1,1 to 2.51,"CCN1CCC(NC(=O)c2ccc(Nc3ncc4c(n3)N(C3CCCC3)CC(C)(C)C(=O)N4C)c(OC)c2)CC1 [Compound 87, 4-(9-cyclopentyl-5,7,7-trimethyl-6-oxo-6,7,8,9-tetrahydro-5H-pyrimido[4,5-b][1,4]diazepin-2-ylamino)-N-(1-ethylpiperidin-4-yl)-3-methoxybenzamide]"
2,> 10,COc1cc(C(=O)NCC2CCN(C)CC2)ccc1Nc1ncc2c(n1)N(C1CCCC1)CC(C)(C)C(=O)N2C [Compound 88]
3,1 to 2.51,"COc1cc(C(=O)NC2CCN(C(C)=O)CC2)ccc1Nc1ncc2c(n1)N(C1CCCC1)CC(C)(C)C(=O)N2C [Compound 90, N-(1-acetylpiperidin-4-yl)-4-(9-cyclopentyl-5,7,7-trimethyl-6-oxo-6,7,8,9-tetrahydro-5H-pyrimido[4,5-b][1,4]diazepin-2-ylamino)-3-methoxybenzamide]"
4,1 to 2.51,"COc1cc(C(=O)NC2CCN(S(C)(=O)=O)CC2)ccc1Nc1ncc2c(n1)N(C1CCCC1)CC(C)(C)C(=O)N2C [Compound 91, 4-(9-cyclopentyl-5,7,7-trimethyl-6-oxo-6,7,8,9-tetrahydro-5H-pyrimido[4,5-b][1,4]diazepin-2-ylamino)-3-methoxy-N-(1-(methylsulfonyl)piperidin-4-yl)benzamide]"
5,3.16 to 10,"COc1cc(C(=O)NCCN(C)C)ccc1Nc1ncc2c(n1)N(C1CCCC1)CC(C)(C)C(=O)N2C [Compound 92, 4-(9-cyclopentyl-5,7,7-trimethyl-6-oxo-6,7,8,9-tetrahydro-5H-pyrimido[4,5-b][1,4]diazepin-2-ylamino)-N-(2-(dimethylamino)ethyl)-3-methoxybenzamide]"
6,1 to 2.51,"COc1cc(C(=O)NC2CCOCC2)ccc1Nc1ncc2c(n1)N(C1CCCC1)CC(C)(C)C(=O)N2C [Compound 94, 4-(9-cyclopentyl-5,7,7-trimethyl-6-oxo-6,7,8,9-tetrahydro-5H-pyrimido[4,5-b][1,4]diazepin-2-ylamino)-3-methoxy-N-(tetrahydro-2H-pyran-4-yl)benzamide]"
7,1 to 2.51,"COc1cc(C(=O)NC2CN(C)C2)ccc1Nc1ncc2c(n1)N(C1CCCC1)CC(C)(C)C(=O)N2C [Compound 95, 4-(9-cyclopentyl-5,7,7-trimethyl-6-oxo-6,7,8,9-tetrahydro-5H-pyrimido[4,5-b][1,4]diazepin-2-ylamino)-3-methoxy-N-(1-methylazetidin-3-yl)benzamide]"
8,3.16 to 10,"COc1cc(C(=O)N[C@@H]2CCN(C)C2)ccc1Nc1ncc2c(n1)N(C1CCCC1)CC(C)(C)C(=O)N2C [Compound 96, (R)-4-(9-cyclopentyl-5,7,7-trimethyl-6-oxo-6,7,8,9-tetrahydro-5H-pyrimido[4,5-b][1,4]diazepin-2-ylamino)-3-methoxy-N-(1-methylpyrrolidin-3-yl)benzamide]"

# Reference: patent publication US20090291938A1 (TAKEDA PHARMACEUTICAL COMPANY LIMITED, priority 2007, published 2009)
